For data set [1] the following is noted: cited from earlier work; for polymorphic conversion: DRX2: upon temperature increase, DRX3: outside dry conditions.
The conditions of data set [2]: cited from earlier work.
Data set [3] is described as follows: Dynamic Vapour Sorption (DVS) hygroscopicity. It counts as physicochemical. As to the method: Dynamic Vapour Sorption (DVS) was performed using a Hiden Analytical Instruments IGAsorp Vapour Sorption Balance. Approximately 30 mg of sample was placed into a wire-mesh vapour sorption balance pan, loaded into the IGAsorp vapour sorption balance and held at 25° C.±0.1° C. The sample was subjected to a step profile from 40% RH to 90% RH at 10% increments, followed by desorption from 90% RH to 0% RH at 10% increments and a second adsoriotn cycle from 0% RH to 90% RH. The equilibrium criterion was set to 99.0% step completion within a minimum of 60 minutes and a maximum of 5 hours for each increment. The weight change during the sorption cycle was monitored, allowing for the hygroscopic nature of the sample to be determined. The data collection interval was in seconds.
The hygrosopicity of masitinib mesylate form H as obtained from example 2 was assessed by DVS. The DVS isotherm was initiated at 40% r.h. and increased to 70% r.h. The weight gain in this relative humidity interval was below 0.27% (w/w).

A short description of data set [4]: Behaviour on heating by TG/DTA. As to conditions: lost small amounts of water. In kind it is physicochemical. How it is done:
Thermogravimetric analyses were carried out on a Mettler Toledo TGA/DSC1 STARe. The calibration standards were indium and tin. Samples were placed in an aluminium sample pan, inserted into the TG furnace and accurately weighed. The heat flow signal was stabilised for one minute at 30° C., prior to heating to 270° C. in a stream of nitrogen at a rate of 10° C./minute.
Masitinib mesylate (25 mg) was charged into a scintillation vial followed by methanol (containing small amounts of water; 1.0 mL). The suspension was then heated until the masitinib mesylate had dissolved. The masitinib mesylate solution in methanol was then allowed to slowly cool to room temperature. The crystals which formed were then harvested by filtration and analyzed by XRPD and TG/DTA.

Setting [5] is: as described in response to the eESR.

On to masitinib mesylate [DRX2], for which the polymorphic conversion entry in data set [1] is “slowly, but fully, converts to DRX1”. Moreover, the polymorphic stability result in data set [1] (setting [5]) was “stable only at 25 °C”.

masitinib mesylate [DRX3]: in data set [1], the polymorphic conversion entry is on record as “quickly converts to DRX2”. Further, the polymorphic stability result in data set [1] (setting [5]) was “stable under dry conditions only”.

Take Masitinib mesylate [crystal form I]: the “behaviour at 80% relative humidity” value in data set [2] (80% relative humidity) is on record as “remains dry”. In addition, in data set [2] (at temperatures below 200° C.), the thermodynamic stability entry is reported as “thermodynamically stable”. Also, the hygroscopicity entry in data set [1] (setting [5]) is “mildly hygroscopic”.

Masitinib mesylate [form H]: the “hygroscopicity compared with form I” value in data set [3] (DVS) was “less hygroscopic than masitinib mesylate form I”. The “weight gain in relative humidity interval (DVS)” value in data set [3] (DVS isotherm from 40% r.h. to 70% r.h., form H from example 2) was “below 0.27 % (w/w)”. Moreover, in data set [3] (interval of relative humidity between 40% and 70% r.h.), the “water absorbed (DVS)” value is “less than 0.5 weight %”.

As for “masitinib mesylate [Comparative Example]”, in data set [4], the “polymorphic conversion upon heating” value was “converted to masitinib mesylate crystal form I upon heating”.

These data come from patent US20150166524A1, “CRYSTALLINE FORM OF MASITINIB” (SANDOZ AG, priority 2013, published 2015).
